Reference: patent US20240254086A1, “(HETERO)ARYLAMIDE COMPOUND AND PEST CONTROL AGENT” (Nippon Soda Co., Ltd., priority 2021, published 2024)

How the values were obtained:
Type in all cases: in vivo
Mythimna separata = test: Efficacy test against Mythimna separata (maize leaf dip); conditions: 125 ppm by mass, maize leaf pieces immersed 30 seconds, second-instar larvae, 6 days after release, 25° C.
Text: (§1) 5 parts by mass of the compound of the present invention, 93.6 parts by mass of dimethylformamide, and 1.4 parts by mass of polyoxyethylene alkylaryl ether were mixed and dissolved to prepare an emulsion (I) containing 5% of an active ingredient.
Maize leaf pieces were immersed in the diluent solution for 30 seconds. These maize leaf pieces were placed in a petri dish, and five second-instar larvae of Mythimna separata were released to prepare an emulsion-treated section.
Similarly, the solvent control solution was diluted with water at the same ratio as that of the emulsion (I), and maize leaf pieces were immersed therein for 30 seconds. These maize leaf pieces were placed in a petri dish, and five second-instar larvae of Mythimna separata were released to prepare a solvent control section.
The petri dishes were left to stand in a thermostatic chamber at a temperature of 25° C. and a humidity of 60% during the test period. Mortality was evaluated at a time of passage of 6 days from the release of the insects, and the insecticidal rate in the emulsion-treated section was calculated, based on the following expression. At the same time, the food consumptions in the emulsion-treated section and the solvent control section were measured. The test was repeated twice.
Insecticidal rate (%)=(Number of dead insects/Number of test insects)×100

Tetranychus kanzawai = test: Efficacy test against Tetranychus kanzawai (spray on kidney bean); conditions: 240 h, 125 ppm by mass, sprayed on kidney bean plants, adult females, 10 days after spraying, 25° C., read-out: insecticical rate against Tetranychus kanzawai (mortality of adults)
Text: as §1
The primary leaves of Kidney bean plants were inoculated with 5 adult female Tetranychus kanzawai from Okayama Prefecture. […] This drug was sprayed on the Kidney bean plants and air-dried. The kidney bean seedlings were then placed in a thermostatic chamber with a temperature of 25° C. and humidity of 65%. Mortality of the adult […] was investigated after 10 days had passed from the spraying. The test was repeated twice.

Tetranychus urticae = test: Efficacy test against Tetranychus urticae (spray on green beans); conditions: 240 h, 125 ppm by mass, sprayed on green beans, adult females, 10 days after spraying, 25° C., read-out: insecticical rate against Tetranychus urticae (mortality of adults)
Method: as §1
Seedlings of green beans were grown in 3-inch pots, and 8 adult female Tetranychus urticae from Aomori Prefecture were inoculated onto the first leaves. […] The diluent solution was sprayed on the green beans. The green beans were then placed in a thermostatic chamber with a temperature of 25° C. and humidity of 65%. Mortality of the adult […] was investigated after 10 days had passed from the spraying. The test was repeated twice.

SMILES | Insecticidal rate against Mythimna separata (Mythimna separata) | mortality at 125 ppm (Tetranychus kanzawai) | mortality at 125 ppm (Tetranychus urticae)
CCSCCC(CC)(CC)CNC(=O)c1cc(C#N)c(-c2ccc(OC(F)(F)F)cc2OC)nc1C [A-27] | 90% |  | 
CCSCCC(CC)(CC)CNC(=O)c1cc(C#N)c(-c2ccc(C(F)(F)F)cc2)nc1C [A-78, 5-Cyano-N-[2,2-diethyl-4-(ethylthio)butyl]-2-methyl-6-[4-(trifluoromethyl)phenyl]nicoti namide] |  | ≥ 90% | ≥ 90%
CCSCCC(C)(C)CN(C)C(=O)c1cc(C#N)c(-c2ccc(C(F)(C(F)(F)F)C(F)(F)F)cc2)nc1C [A-105] | 90% |  | 
CCSCC(C)(C)CN(C)C(=O)c1cc(C#N)c(-c2ccc(C(F)(F)F)cc2)nc1C [A-146, 5-Cyano-N-[3-(ethylthio)-2,2-dimethylpropyl]-N,2-dimethyl-6-[4-(trifluoromethyl)pheny 1]nicotinamide] |  | ≥ 90% | ≥ 90%
CCSCC(C)(C)CNC(=O)c1cc(C#N)c(-c2ccc(C(F)(F)F)cc2)nc1C [A-147, 5-Cyano-N-[3-(ethylthio)-2,2-dimethylpropyl]-2-methyl-6-[4-(trifluoromethyl)phenyl]ni cotinamide] |  | ≥ 90% | ≥ 90%
CCSCCC(CC)(CC)CNC(=O)c1cc(C#N)c(-c2ccc(C(F)(F)F)cc2)cc1C(F)(F)F [C-7, 2-Cyano-N-[2,2-diethyl-4-(ethylthio)butyl]-4′,5-bis(trifluoromethyl)-(1,1′-biphenyl)-4-ca rboxamide] |  | ≥ 90% | ≥ 90%
